Assay results: patent publication US7598206B2, “Fungicidal mixtures” (BASF Aktiengesellschaft, priority 2004, dated 2009)

Experiments:
Type in all cases: in vivo
Botrytis cinerea [1] = test: Use example 1: activity against gray mold on bell pepper leaves, 1 day protective application; settings: efficacy in % of untreated control (Abbot), sprayed 1 day before inoculation, rated after 5 days, read-out: Observed activity (%)
Description: (§1) The active compounds were prepared jointly or separately as a stock solution with 25 mg of active compound which was made up to 10 ml using a mixture of acetone and/or DMSO and the emulsifier Uniperol® EL (wetting agent having emulsifying and dispersing action based on ethoxylated alkylphenols) in a volume ratio of solvent/emulsifier of 99 to 1. The mixture was then made up with water to 100 ml. This stock solution was diluted with the solvent/emulsifier/water mixture described to the concentration of active compounds stated below.
(§2) The active compounds epoxiconazole and pyraclostrobin were used as commercial formulations and diluted with water to the stated concentration.
(§3) The visually determined percentages of infected leaf areas were converted into efficacies in % of the untreated control:
(§4) The efficacy (E) is calculated as follows using Abbot's formula: E=(1−α/β)·100 • α corresponds to the fungicidal infection of the treated plants in % and • β corresponds to the fungicidal infection of the untreated (control) plants in % […]
(§5) The expected efficacies of mixtures of active compounds were determined using Colby's formula (Colby, S. R. “Calculating synergistic and antagonistic responses of herbicide combinations”, Weeds, 15, 1967, p. 20-22) and compared with the observed efficacies. […]

Botrytis cinerea [2] = test: Use example 2: activity against gray mold on bell pepper leaves, 5 day protective application; settings: sprayed 5 days before inoculation, read-out: Observed activity (%)
Description: as §1, §2, §3
The efficacy (E) is calculated as follows using Abbot's formula: E=(1−α/β)·100 • α corresponds to the fungicidal infection of the treated plants in % and • β corresponds to the fungicidal infection of the untreated (control) plants in %
An efficacy of 0 means that the infection level of the treated plants corresponds to that of the untreated control plants; an efficacy of 100 means that the treated plants were not infected.
The expected efficacies of mixtures of active compounds were determined using Colby's formula (Colby, S. R. “Calculating synergistic and antagonistic responses of herbicide combinations”, Weeds, 15, 1967, p. 20-22) and compared with the observed efficacies.
Colby's formula: E=x+y−x·y/100 • E expected efficacy, expressed in % of the untreated control, when using the mixture of the active compounds A and B at the concentrations a and b • x efficacy, expressed in % of the untreated control, when using the active compound A at the concentration a • y efficacy, expressed in % of the untreated control, when using the active compound B at the concentration b
Use example 2-activity against gray mold on bell pepper leaves caused by Botrytis cinerea, 5 day protective application
Bell pepper seedlings of the cultivar “Neusiedler Ideal Elite” were, after 2-3 leaves were well developed, sprayed to runoff point with an aqueous suspension having the active compound concentration given below. After 5 days, the treated plants were inoculated with a spore suspension of Botrytis cinerea which comprised 1.7×10^6 spores/ml in a 2% strength aqueous biomalt solution. The test plants were then placed in a dark climatized chamber at 22 to 24° C. and high atmospheric humidity. After 5 days, the extent of the fungal infection on the leaves could be determined visually in %.

Alternaria solani = test: Use example 3: 5 day protective activity against early blight of tomato; settings: sprayed 5 days before infection, rated after 5 days, read-out: Observed activity (%)
Description: as §1, §2, §3, §4, §5

Q: With `Fc1ccc([C@]2(Cn3cncn3)O[C@H]2c2ccccc2Cl)cc1` (racemic) [epoxiconazole (A7), (2RS,3SR)-1-[3-(2-chlorophenyl)-2,3-epoxy-2-(4-fluorophenyl)propyl]-1H-1,2,4-triazole] as the molecule, how does the inhibition at 4 ppm (Botrytis cinerea [1]) read?
A: 0%

Q: What does the source list for `CN1OC(c2ccc(Cl)cc2)CC1(C)c1cccnc1` (centres unmarked) [SYP-Z048 (I)]?
A: inhibition at 4 ppm (Botrytis cinerea [1]): 70%; inhibition at 16 ppm (Botrytis cinerea [2]; 16 ppm, rated after 5 days): 0%; inhibition at 1 ppm (Alternaria solani; 1 ppm): 0%

Q: For `O=C(Nc1ccccc1-c1ccc(Cl)cc1)c1cccnc1Cl` [boscalid (C3), 2-chloro-N-(4′-chlorobiphenyl-2-yl)nicotinamide], which inhibition at 4 ppm (Botrytis cinerea [2]; 4 ppm) is on record?
A: 0%

Q: What about the inhibition at 4 ppm (Alternaria solani; 4 ppm) of the same molecule?
A: 56%

Q: For `COC(=O)N(OC)c1ccccc1COc1ccn(-c2ccc(Cl)cc2)n1` [pyraclostrobin (B9), methyl N-{2-[1-(4-chlorophenyl)-1H-pyrazol-3-yloxymethyl]phenyl}(N-methoxy)carbamate], which inhibition at 63 ppm (Botrytis cinerea [2]; 63 ppm, commercial formulation) is on record?
A: 20%

Q: For `Cc1ccc(N(SC(F)(Cl)Cl)S(=O)(=O)N(C)C)cc1` [tolylfluanid (F29), N-dichlorofluoromethylthio-N′,N′-dimethyl-N-p-tolylsulfamide], which inhibition at 250 ppm (Botrytis cinerea [2]; 250 ppm) is on record?
A: 20%
